PubChem BioAssay (NCI)
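Cultured in 96-well plates, cells were exposed to test compound for 48 hours across five concentrations. GI50 is the concentration that inhibits growth by half. The concentration for full growth arrest is given as TGI.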

Columns and labels:
Experiment in all cases: NCI anticancer screen, dose series, 48 h
[1] = test system: CCRF-CEM leukemia
[2] = test system: EKVX NSCLC
[3] = test system: KM12 colon
[4] = test system: NCI-H226 lung
[5] = test system: OVCAR-4 ovarian
[6] = test system: SK-MEL-28 melanoma
[7] = test system: SK-MEL-5 melanoma
[8] = test system: U251 CNS
[9] = test system: UO-31 renal
[10] = test system: BT-549 breast

Row | Compound | TGI [1] [µM] | TGI [2] [µM] | TGI [3] [µM] | TGI [4] [µM] | TGI [5] [µM] | TGI [6] [µM] | TGI [7] [µM] | TGI [8] [µM] | TGI [9] [µM] | GI50 [10] [µM] | TGI [10] [µM] | GI50 [1] [µM] | GI50 [3] [µM] | GI50 [5] [µM] | GI50 [6] [µM] | GI50 [7] [µM] | GI50 [8] [µM] | GI50 [9] [µM] | GI50 [2] [µM] | GI50 [4] [µM]
1 | CC1=NOC(=O)/C1=C/c1ccccc1O | > 100 | > 100 | > 100 | > 100 | > 100 | > 100 | > 100 | > 100 | > 100 |  |  |  |  |  |  |  |  |  |  | 
2 | Cc1cc(N(CCC#N)S(=O)(=O)c2ccccc2)ccc1/C=C1N=C(/C=C/c2ccccc2)OC\1=O | > 100 | > 100 | > 100 | > 100 |  | > 100 | > 100 | > 100 | > 100 |  |  |  |  |  |  |  |  |  |  | 
3 | C=CCC1([C@H](C)[C@@H](OC(C)=O)c2cc(OC)c(OC)c(OC)c2)C[C@@H](OC)CCC1=O (stereo partly drawn) | 51.7 | 76.2 | 37 | 44.2 | 85.1 | 52.4 | > 100 | 26.7 |  |  |  |  |  |  |  |  |  |  |  | 
4 | CCCCCCCCCc1cc(=O)c2ccc(OCc3ccccc3)cc2o1 | > 100 | > 100 | > 100 | > 100 | > 100 | > 100 | > 100 | > 100 | > 100 |  |  |  |  |  |  |  |  |  |  | 
5 | CC1CCCCc2nc3c(c(=O)n21)CCCC3 (stereo not drawn) |  |  | > 100 | > 100 | > 100 | > 100 |  | > 100 | > 100 |  |  |  |  |  |  |  |  |  |  | 
6 | CCN(Cc1ccc(F)c(F)c1)c1ccc(CO)c(Cl)c1 | 47 |  | 28.4 |  | 1.46 | 25.1 | 20.3 | 15.1 | 19.2 | 11.3 | 25 | 15.1 | 13.9 | 0.18 | 12.4 | 5.85 | 0.867 | 2.7 |  | 
7 | COc1ccccc1NC(=O)CC(=O)N1N=C(C)C(N=Nc2ccc(S(N)(=O)=O)cc2)C1=O (stereo not drawn) |  | > 100 | > 100 | > 100 | > 100 | > 100 | > 100 | > 100 | > 100 |  |  |  |  |  |  |  |  |  |  | 
8 | Cc1ccncc1.[O]=[Ge].[O]=[Ge].[O]=[Ge].[O]=[Ge].[O]=[Ge].[O]=[Ge][OH].[O]=[Ge][OH] | > 100 | > 100 | > 100 | > 100 | > 100 | > 100 | > 100 |  | > 100 |  |  | > 100 | > 100 | > 100 | > 100 | > 100 |  | > 100 | > 100 | > 100
9 | C=C1C(=O)O[C@H]2[C@H]1[C@H](OC(=O)/C(C)=C\C)CC(=C)[C@@H]1[C@H](O)[C@H]3O[C@@]3(C)[C@@]12O | > 100 | > 100 | > 100 |  | > 100 | > 100 | > 100 | > 100 | > 100 |  |  |  |  |  |  |  |  |  |  | 
10 | CN(C(=O)C12C3C4C5C3C1(C(=O)O)C5C42)C(C)(C)C (stereo not drawn) | > 100 | > 100 | > 100 | > 100 | > 100 | > 100 | > 100 | > 100 | > 100 |  |  |  |  |  |  |  |  |  |  | 
11 | Cc1sc(C(=O)Nc2cc(C(=O)NCCCN(C)C)n(C)c2)cc1NC(=O)CCCN1C(=O)c2cccc3cccc(c23)C1=O | > 100 | > 100 | > 100 | > 100 | > 100 | > 100 | > 100 | > 100 | > 100 |  |  | > 100 | > 100 | 41 | > 100 | 38.2 | > 100 | > 100 | > 100 | > 100
12 | CCOC(=O)C1=C(C)N(Cc2ccccc2)C(C)=C(C(=O)OCC)C1c1ccccc1O | 69.5 | 95.9 | 64.4 | 80.4 | > 100 | > 100 | 30.3 | > 100 | > 100 |  |  |  |  |  |  |  |  |  |  | 
13 | CC(=O)NC(CCCNCc1ccccc1)C(=O)NCc1ccccc1 (stereo not drawn) | > 100 | > 100 | > 100 | > 100 | > 100 | > 100 | > 100 | > 100 | > 100 |  |  |  |  |  |  |  |  |  |  | 
14 | COc1nc(NC2OCC(OC(C)=O)C(OC(C)=O)C2OC(C)=O)c(N=CC=Nc2c(NC3OCC(OC(C)=O)C(OC(C)=O)C3OC(C)=O)nc(OC)n(C)c2=O)c(=O)n1C (stereo not drawn) |  | > 100 | > 100 |  | > 100 | > 100 | > 100 | > 100 | > 100 |  |  |  |  |  |  |  |  |  |  | 
15 | O=c1c2c([nH]c3cc4c(cc13)OCO4)-c1ccccc1CC2 | > 100 | > 100 |  | > 100 | > 100 | > 100 | > 100 | > 100 | > 100 |  |  |  |  |  |  |  |  |  |  | 
16 | COc1ccccc1NC(=O)C1=C(C)NC(C)=C(C(=O)Nc2ccccc2OC)C1c1ccccc1F | > 100 | > 100 | > 100 | > 100 | > 100 | > 100 | > 100 | > 100 | > 100 |  |  |  |  |  |  |  |  |  |  | 
17 | COc1ccc2c(c1)C(O)(C(F)(F)F)c1cc(C(=O)C(F)(F)F)c3ccccc3c1N2 (stereo not drawn) | 29.2 | 34.1 | 15.6 | 28 | 22.4 | 27.7 | 26.6 |  | 21.5 |  |  |  |  |  |  |  |  |  |  | 
18 | COC(=O)CCC1CCc2c(OC)ccc(O)c2C1=O (stereo not drawn) | > 100 | > 100 | > 100 | 84.1 | > 100 | > 100 | > 100 | > 100 | > 100 |  |  |  |  |  |  |  |  |  |  | 
19 | COc1ccc(-c2cc(=O)c3cc4c(cc3[nH]2)OCO4)c(OC)c1OC | > 100 | > 100 | > 100 | > 100 | > 100 | > 100 | > 100 | > 100 | > 100 |  |  |  |  |  |  |  |  |  |  | 
20 | CC(C)(C)OC(=O)C#CC[C@H]1CCCC1/C=C/C(O)=C1/C(=O)NC(CCCNC(=O)OC(C)(C)C)C1=O (stereo partly drawn) | 88.5 | > 100 | > 100 | > 100 | 94.1 | 36.1 | > 100 | 74.8 | > 100 |  |  |  |  |  |  |  |  |  |  | 
21 | COC(=O)c1csnn1 | > 100 | > 100 | > 100 | > 100 |  | > 100 | > 100 | > 100 | > 100 |  |  |  |  |  |  |  |  |  |  | 
22 | COC(=O)CCC(NC(=S)N/N=C(\C)c1nccs1)C(=O)OC (stereo not drawn) |  | > 100 | > 100 | > 100 | > 100 | > 100 | > 100 | > 100 | > 100 |  |  |  |  |  |  |  |  |  |  | 
